How the values were obtained:
[1] = target: T1, human IDO1 (Homo sapiens, UniProt P14902); assay: IDO inhibition assay in HEK293 cells stably expressing human IDO1 (kynurenine, Ehrlich reagent); type: cell-based; conditions: 20 hours incubation, absorbance at 490 nm, read-out: IDO1 HEK Human IC50
T1 construct: expressed in transfected cells
Method: HEK293 cells were transfected with a pCDNA-based mammalian expression vector harboring human IDO1 cDNA (NM 002164.2) by electroporation. They were cultured in medium (DMEM with 10% FBS) containing 1 mg/ml G418 for two weeks. Clones of HEK293 cells that stably expressed human IDO1 protein were selected and expanded for IDO inhibition assay.
The human IDO1/HEK293 cells were seeded at 10,000 cells per 50 μL per well with RPMI/phenol red free media contains 10% FBS in a 384-well black wall clear bottom tissue culture plate (Matrix Technologies LLC) 100 nL of certain concentration of compound was then added to each well using ECHO liquid handling systems. The cells were incubated for 20 hours in 37° C. incubator with 5% CO2.
The compound treatments were stopped by adding trichloroacetic acid (Sigma-Aldrich) to a final concentration at 0.2%. The cell plate was further incubated at 50° C. for 30 minute. The equal volume supernatant (20 μL) and 0.2% (w/v) Ehrlich reagent (4-dimethylaminobenzaldehyde, Sigma-Aldrich) in glacial acetic acid were mixed in a new clear bottom 384-well plate. This plate was then incubated at room temperature for 30 minute. The absorbance at 490 nm was measured on Envision plate reader.
Compound IC50 values were calculated using the counts of 500 nM of a reference standard treatment as one hundred percent inhibition, and counts of no compound but DMSO treatment as zero percent inhibition.

[2] = target: T2, indoleamine 2,3-dioxygenase (IDO) (Homo sapiens, UniProt P14902); assay: HeLa cell-based indoleamine 2,3-dioxygenase (IDO) assay (kynurenine production); conditions: HeLa cells, IFNγ 25 ng/mL, 48 hour incubation, absorbance at 480 nm
T2 construct: host or cells: HeLa cells stimulated with IFNγ (25 ng/mL)
Method: Assessment of inhibitor activity in HeLa cell-based indoleamine 2,3-dioxygenase (IDO) assay:
HeLa (ATCC® CCL-2) cells were obtained from the ATCC® and cultured in Dulbecco's Modified Eagle Medium supplemented with 4.5 g/L glucose, […] (#10-013-CV, Corning), 2 mM L-alanyl-L-glutamine dipeptide (#35050-061, Gibco), 100U/mL penicillin, 100 μg/mL streptomycin (#SV30010, HyClone) and 10% fetal bovine serum (#SH30071.03 HyClone). Cells were maintained in a humidified incubator at 37° C. in 5% CO2.
IDO activity was assessed as a function of kynurenine production as follows: HeLa cells were seeded in a 96-well culture plate at a density of 5,000 cells/well and allowed to equilibrate overnight. After 24 hours, the media was aspirated and replaced with media containing IFNγ (#285-IF/CF, R&D Systems) at a final concentration of 25 ng/mL. A serial dilution of each test compound was added to the cells in a total volume of 200 μL of culture medium. After a further 48 hour incubation, 170 μL of supernatant was transferred from each well to a fresh 96-well plate. 12.1 μL of 6.1N trichloroacetic acid (#T0699, Sigma-Aldrich) was added to each well and mixed, followed by incubation at 65° C. for 20 minutes to hydrolyze N-formylkynurenine, the product of indoleamine 2,3-dioxygenase, to kynurenine. The reaction mixture was then centrifuged for 10 mins at 500×g to sediment the precipitate. 100 μL of the supernatant was transferred from each well to afresh 96-well plate. 100 μl of 2% (w/v) p-dimethylaminobenzaldehyde (#15647-7, Sigma-Aldrich) in acetic acid (#A6283, Sigma-Aldrich) was added to each well mixed and incubated at room temperature for 20 mins. Kynurenine concentrations were determined by measuring absorbance at 480 nm and calibrating against an L-kynurenine (#K8625, Sigma-Aldrich) standard curve using a SPECTRAMAX® M2e microplate reader (Molecular Devices). The percentage activity at each inhibitor concentration was determined and IC50 values assessed using nonlinear regression.

T2 sequence (P14902 whole entry): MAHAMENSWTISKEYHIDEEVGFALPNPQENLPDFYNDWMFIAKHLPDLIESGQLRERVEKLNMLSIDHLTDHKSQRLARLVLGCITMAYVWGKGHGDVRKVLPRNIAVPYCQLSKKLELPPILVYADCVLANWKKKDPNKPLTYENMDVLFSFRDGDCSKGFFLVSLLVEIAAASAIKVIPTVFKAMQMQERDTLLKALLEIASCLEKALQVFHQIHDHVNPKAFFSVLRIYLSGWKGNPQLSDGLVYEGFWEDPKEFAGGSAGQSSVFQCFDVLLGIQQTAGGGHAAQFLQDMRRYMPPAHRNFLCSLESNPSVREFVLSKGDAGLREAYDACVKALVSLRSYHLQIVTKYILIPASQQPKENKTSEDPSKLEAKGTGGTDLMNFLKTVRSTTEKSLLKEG
T1 sequence (P14902 whole entry): as above

Compound | IC50 [1] | IC50 [2]
C[C@@H](c1nc2ccccc2[nH]1)[C@H]1CC[C@@H](c2ccnc3ccc(F)cc32)CC1 [Example 1, 4-((cis)-4-((R)-1-(1H-benzo[d]imidazol-2-yl)ethyl)cyclohexyl)-6-fluoroquinoline] | 5.2 nM | 4.7 nM
C[C@@H](c1nc2ccc(Cl)cc2[nH]1)[C@H]1CC[C@@H](c2ccnc3ccc(F)cc32)CC1 [Example 2, 4-((cis)-4-((R)-1-(6-chloro-1H-benzo[d]imidazol-2-yl)ethyl)cyclohexyl)-6-fluoroquinoline] | 1.8 nM | 1.1 nM
C[C@@H](c1nc2ccc(F)cc2[nH]1)[C@H]1CC[C@@H](c2ccnc3ccc(F)cc32)CC1 [Example 3, 6-fluoro-4-((cis)-4-((R)-1-(6-fluoro-1H-benzo[d]imidazol-2-yl)ethyl)cyclohexyl)quinoline] | 2.7 nM | 1.5 nM
C[C@@H](c1nc2ncc(Cl)cc2[nH]1)[C@H]1CC[C@@H](c2ccnc3ccc(F)cc32)CC1 [Example 6, 4-((cis)-4-((R)-1-(6-chloro-1H-imidazo[4,5-b]pyridin-2-yl)ethyl)cyclohexyl)-6-fluoroquinoline] | 7 nM | 4.5 nM
C[C@@H](c1nc2ncccc2[nH]1)[C@H]1CC[C@@H](c2ccnc3ccc(F)cc32)CC1 [Example 7, 4-((cis)-4-((R)-1-(1H-imidazo[4,5-b]pyridin-2-yl)ethyl)cyclohexyl)-6-fluoroquinoline] | 23.2 nM | 30.1 nM
C[C@@H](Nc1nc2ccc(Cl)cc2o1)[C@H]1CC[C@@H](c2ccnc3ccc(F)cc32)CC1 [Example 11, 6-chloro-N-((R)-1-((cis)-4-(6-fluoroquinolin-4-yl)cyclohexyl)ethyl)benzo[d]oxazol-2-amine] | 40.9 nM | 40.9 nM
C=CC[C@@H](c1nc2ccc(Cl)cc2[nH]1)[C@H]1CC[C@@H](c2ccnc3ccc(F)cc32)CC1 [Example 32, 4-((1S,4s)-4-((R)-1-(6-chloro-1H-benzo[d]imidazol-2-yl)but-3-en-1-yl)cyclohexyl)-6-fluoroquinoline] | 2 nM | 2.8 nM
CCC(c1nc2ccc(Cl)cc2[nH]1)[C@H]1CC[C@@H](Oc2ccnc3ccccc23)CC1 (stereo partly shown) [Example 51, 4-(((1s,4s)-4-(1-(6-chloro-1H-benzo[d]imidazol-2-yl)propyl)cyclohexyl)oxy)quinoline] | 1060 nM | 
CCC(c1nc2ccc(Cl)cc2[nH]1)[C@H]1CC[C@@H](Oc2ccnc3ccccc23)CC1 (stereo partly shown) [Example 52, 4-(((1s,4s)-4-(1-(6-chloro-1H-benzo[d]imidazol-2-yl)propyl)cyclohexyl)oxy)quinoline] | 697 nM | 
(+/−)-Cis and trans-6-chloro-2-(1-(4-(2-(trifluoromethyl)pyridin-4-yl)cyclohexyl)propyl)-1H-benzo[d]imidazole [Example 36] | 26.1 nM | 
(±)-Cis and trans-6-chloro-2-(1-(4-(2-(trifluoromethyl)pyridin-4-yl)cyclohexyl)ethyl)-1H-benzo[d]imidazole [Example 38] | 62.1 nM | 

Second part, the compound after the results:

IC50 [1] | IC50 [2] | Compound
4.1 nM | 5.7 nM | CCC(c1nc2ccc(Cl)cc2[nH]1)[C@H]1CC[C@H](Oc2ccnc3ccccc23)CC1 (single isomer, unassigned) [Example 13-1, 4-(((trans)-4-(1-(6-chloro-1H-benzo[d]imidazol-2-yl)propyl)cyclohexyl)oxy)quinoline]
3.4 nM | 8.9 nM | CCC(c1nc2ccc(Cl)cc2[nH]1)[C@H]1CC[C@H](Oc2ccnc3ccccc23)CC1 (single isomer, unassigned) [Example 13-2, 4-(((trans)-4-(1-(6-chloro-1H-benzo[d]imidazol-2-yl)propyl)cyclohexyl)oxy)quinoline]
0.7 nM | 3.5 nM | CC[C@H](c1nc2ccc(Cl)cc2[nH]1)[C@H]1CC[C@@H](c2ccnc3ccc(F)cc32)CC1 (single isomer, unassigned) [Example 15-3, 4-(4-(1-(6-chloro-1H-benzo[d]imidazol-2-yl)propyl)cyclohexyl)-6-fluoroquinoline]
6.6 nM | 9.5 nM | CC[C@H](c1nc2ccc(Cl)cc2[nH]1)[C@H]1CC[C@@H](c2ccnc3ccc(F)cc32)CC1 (single isomer, unassigned) [Example 15-4, 4-(4-(1-(6-chloro-1H-benzo[d]imidazol-2-yl)propyl)cyclohexyl)-6-fluoroquinoline]
4.5 nM | 5.7 nM | CC(c1nc2ccc(Cl)cc2[nH]1)C1CCC(c2ccnc3ccccc23)CC1 (single isomer, unassigned) [Example 16-2, (±)-4-(4-(1-(6-chloro-1H-benzo[d]imidazol-2-yl)ethyl)cyclohexyl)quinoline]
